This passage reports IC50 results from paper PMC10208040, “Computational docking and in vitro analysis identifies novel arylidene analogue FPMXY-14 against renal cancer cells by attenuating Akt” (Oncology Research, 2021).

SMILES strings stand for the structures.

This test concerns the target T1, Akt.
T1 construct: gene AKT1
As to the kind of experiment: Z'-LYTE fluorescence-based coupled-enzyme kinase assay. Format: biochemical.

As usually defined, the IC50 is the concentration that inhibits the measured activity by half.

Consider `Cc1ccc(C)c2c1CC(=Cc1ccc(C(C)C)cc1)C2=O` [FPMXY-14, 2-(4-isopropyl-benzylidene)-4,7-dimethyl-indan-1-one], for which it took 148 nM to reach half-maximal inhibition (IC50).
